From US10131658B2, “Anti-alphavbeta1 integrin compounds and methods” (The Regents of the University of California, priority 2013, dated 2018) come the findings set out here.

Test [1] concerns αvβ1 integrin. Kind of test: Cell Adhesion Assay (integrin-specific adhesion, CHO cells transfected with human αv adhering to fibronectin). The following applies: for IC50: Cell Adhesion Assay. The class given is cell-based. The method, then: The effects of c8 and c16 on cell adhesion mediated by α5β1, α8β1, αvβ1, αvβ3, αvβ5, αvβ6, and αvβ8 were measured using pairs of cell lines and ligands selected to isolate the effect of each individual integrin. For α5β1 we utilized the colon carcinoma cell line, SW480, plated on 0.3 μg/ml fibronectin, for α8β1, we utilized SW480 cells transfected with human α8 adhering to 1 μg/ml recombinant TGFβ1 LAP [5], for αvβ1 we used Chinese Hamster Ovary Cells (CHO cells) transfected with human αv adhering to 0.3 μg/ml fibronectin [6], for αvβ3 we used SW480 cells transfected with human β3, for αvβ5 we used wild type SW480 cells adhering to 0.1 μg/ml vitronectin. […] Cells were allowed to attach for 30-60 min at 37° C. After incubation, non-adherent cells were removed by discarding the media and spinning the plate top-side down at 500 rpm for 5 minutes. Cells were then fixed and stained with 40 ul of 0.5% Crystal violet, 1% Formaldehyde, 20% Methanol for 30 minutes and lysed with 2% Trition-X. Absorbance was measured at 595 nm in a Microplate reader. For all assays, concentration-response curves were constructed by non-linear regression analysis and IC50 values were calculated using GraphPad Prism software.
αvβ1 integrin inhibition is effective in cell adhesion assay/mouse liver fibrosis model: Inhibitors were tested in cell adhesion assay to test their potency/selectivity. A panel of cell lines and integrin ligands were developed to allow rapid examination of potency and specificity of inhibitors against all 8 integrins that recognize RGD sequences in ligands. A subset of these was used to generate the very encouraging data about 8 shown above. These cell lines were used to calculate IC50 concentrations for each inhibitor synthesized to rapidly generate structure activity information to drive subsequent modification and synthesis. Inhibitors were evaluated for showing better potency/selectivity in CCl4-induced liver fibrosis. A general inhibitor of αv integrins can reverse fibrosis in this model when administered as a continuous subcutaneous infusion (from Alzet pumps) beginning 3 weeks after CCl4 initiation. However, global inhibition of all αv integrins is likely to cause unacceptable side effects. […] As above, pumps will be inserted after 3 weeks of CCl4 treatment. Once we find small molecules that are effective, each will be further tested in the UUO model of renal fibrosis and the bleomycin model of pulmonary fibrosis. Again we will examine therapeutic rather than prophylactic efficacy by beginning treatment in each model after the onset of fibrosis.

The test system of test [2] is TGFβ activation by cells expressing αvβ1. Kind of test: TGFβ activation assay (co-culture with PAI1-luciferase TGFβ reporter cells). The class given is cell-based. On the procedure:
Test cells were plated at 50K cells/well in 96-well plates together with mink lung epithelial cells expressing firefly luciferase downstream of the TGFβ sensitive portion of the plasminogen activator inhibitor 1 promoter (15K cells/well). Cells were co-cultured for 16 hours and TGFβ activity was calculated by measurement of luminescencein the presence and absence of TGFβ-blocking antibody, 1D11.

As for `N=C(N)NCCC(=O)Nc1ccc(C[C@H](NC(=O)[C@@H]2CCCN2S(=O)(=O)c2ccccc2)C(=O)O)cc1` [Compound 5, (S)-3-(4-(3-guanidinopropanamido)phenyl)-2-((S)-1-(phenylsulfonyl)pyrrolidine-2-carboxamido)propanoic acid], in test [1], the IC50 is under 10 nM.

Consider `Cc1ccc(NCCCC(=O)Nc2ccc(C[C@H](NC(=O)[C@@H]3CCCN3S(=O)(=O)c3ccccc3)C(=O)O)cc2)nc1` [Compound 206, (S)-3-(4-(4-((5-methylpyridin-2-yl)amino)butanamido)phenyl)-2-((S)-1-(phenylsulfonyl)pyrrolidine-2-carboxamido)propanoic acid], for which, in test [1], the IC50 was in the range of 10 to 1000 nM.

Molecule `NCCCC(=O)Nc1ccc(C[C@H](NC(=O)[C@@H]2CCCN2S(=O)(=O)c2ccccc2)C(=O)O)cc1` [Compound 6, (S)-3-(4-(4-aminobutanamido)phenyl)-2-((S)-1-(phenylsulfonyl)pyrrolidine-2-carboxamido)propanoic acid] registered an IC50 in test [1] of under 10 nM.

On to `O=C(CCCNc1ccccn1)Nc1ccc(C[C@H](NC(=O)[C@@H]2CCCCN2S(=O)(=O)c2ccccc2)C(=O)O)cc1` [Compound 213], for which the IC50 in test [1] was under 10 nM.

On to `NCCCC(=O)Nc1ccc(C[C@H](NC(=O)[C@@H]2CCCN2S(=O)(=O)c2ccccc2)C(=O)O)cc1` [Compound 3, (S)-3-(4-(4-aminobutanamido)phenyl)-2-((S)-1-(phenylsulfonyl)pyrrolidine-2-carboxamido)propanoic acid], for which, in test [1], the IC50 lay in the range of 10 to 1000 nM. As to `CN(C)c1cccc2c(S(=O)(=O)N3CCCC3C(=O)N[C@@H](Cc3ccc(NC(=O)CCCCNC(=N)N)cc3)C(=O)O)cccc12` (stereo partly drawn) [Compound 215], the IC50 in test [1] was under 10 nM. On to `O=C(CCCNC1=NCCN1)Nc1ccc(C[C@H](NC(=O)[C@@H]2CCCN2S(=O)(=O)c2ccccc2)C(=O)O)cc1` [Compound 87, (S)-3-(4-(4-((4,5-dihydro-1H-imidazol-2-yl)amino)butanamido)phenyl)-2-((S)-1-(phenylsulfonyl)pyrrolidine-2-carboxamido)propanoic acid], for which the IC50 in test [1] is under 10 nM. As for `O=C(CCCCNC1=NCCCN1)Nc1ccc(C[C@H](NC(=O)[C@@H]2CCCN2S(=O)(=O)c2ccccc2)C(=O)O)cc1` [Compound 60], the half-inhibitory concentration (IC50) in test [1] was in the range of 10 to 1000 nM. Take `O=C(CCCc1ccc2c(n1)NCCC2)Nc1ccc(C[C@H](NC(=O)[C@@H]2CCCN2S(=O)(=O)c2ccccc2)C(=O)O)cc1` [Compound 63]: the IC50 in test [1] was 10 to 1000 nM.

For the molecule `Cc1cc(C)cc(S(=O)(=O)N2CCC[C@H]2C(=O)N[C@@H](Cc2ccc(NC(=O)CCCNC(=N)N)cc2)C(=O)O)c1` [Compound 214], the IC50 in test [1] was 10 to 1000 nM. Same read-out and setting: in the case of `Cc1cccc(NCCCC(=O)Nc2ccc(C[C@H](NC(=O)[C@@H]3CCCN3S(=O)(=O)c3ccccc3)C(=O)O)cc2)n1` [Compound 207, (S)-3-(4-(4-((6-methylpyridin-2-yl)amino)butanamido)phenyl)-2-((S)-1-(phenylsulfonyl)pyrrolidine-2-carboxamido)propanoic acid] it was 10 to 1000 nM; in that of `CNCCCCCC(=O)N[C@H](CCCNC(=N)N)C(=O)Nc1ccc(C[C@H](NC(=O)[C@@H]2CCCN2S(=O)(=O)c2ccccc2)C(=O)O)cc1` (stereo in doubt) [Compound 199], under 10 nM. Same read-out and setting: in the case of `NCCCCC(=O)Nc1ccc(C[C@H](NC(=O)[C@@H]2CCCN2S(=O)(=O)c2ccccc2)C(=O)O)cc1` [Compound 7, (S)-3-(4-(5-aminopentanamido)phenyl)-2-((S)-1-(phenylsulfonyl)pyrrolidine-2-carboxamido)propanoic acid] it was 1000 to 10000 nM; in that of `NCCCCCC(=O)Nc1ccc(C[C@H](NC(=O)[C@@H]2CCCN2S(=O)(=O)c2ccccc2)C(=O)O)cc1` [Compound 9, (S)-3-(4-(6-aminohexanamido)phenyl)-2-((S)-1-(phenylsulfonyl)pyrrolidine-2-carboxamido)propanoic acid], 1000 to 10000 nM. `NCCC(=O)Nc1ccc(C[C@H](NC(=O)[C@@H]2CCCN2S(=O)(=O)c2ccccc2)C(=O)O)cc1` [Compound 2, (S)-3-(4-(3-aminopropanamido)phenyl)-2-((S)-1-(phenylsulfonyl)pyrrolidine-2-carboxamido)propanoic acid] returned an IC50 in test [1] of 10 to 1000 nM. In test [1], `NCC(=O)Nc1ccc(C[C@H](NC(=O)[C@@H]2CCCN2S(=O)(=O)c2ccccc2)C(=O)O)cc1` [Compound 1, (S)-3-(4-(2-aminoacetamido)phenyl)-2-((S)-1-(phenylsulfonyl)pyrrolidine-2-carboxamido)propanoic acid] had an IC50 of 1000 to 10000 nM. In turn, `N=C(N)NC(=O)CCC(=O)Nc1ccc(C[C@H](NC(=O)[C@@H]2CCCN2S(=O)(=O)c2ccccc2)C(=O)O)cc1` [Compound 93] displayed an IC50 in test [1] of 10 to 1000 nM. `N=C(N)NCCCCCC(=O)Nc1ccc(C[C@H](NC(=O)[C@@H]2CCCN2S(=O)(=O)c2ccccc2)C(=O)O)cc1` [Compound 10, (S)-3-(4-(6-guanidinohexanamido)phenyl)-2-((S)-1-(phenylsulfonyl)pyrrolidine-2-carboxamido)propanoic acid] returned an IC50 in test [1] of 10 to 1000 nM. As to `N=C(N)Nc1cccc(C(=O)Nc2ccc(C[C@H](NC(=O)[C@@H]3CCCN3S(=O)(=O)c3ccccc3)C(=O)O)cc2)c1` [Compound 201, (S)-3-(4-(3-guanidinobenzamido)phenyl)-2-((S)-1-(phenylsulfonyl)pyrrolidine-2-carboxamido)propanoic acid], the IC50 in test [1] is under 10 nM. In test [1], `N=C(N)NCCCCC(=O)Nc1ccc(C[C@H](NC(=O)[C@@H]2CCCN2S(=O)(=O)c2ccccc2)C(=O)O)cc1` [Compound 8, (S)-3-(4-(5-guanidinopentanamido)phenyl)-2-((S)-1-(phenylsulfonyl)pyrrolidine-2-carboxamido)propanoic acid] yielded an IC50 of under 10 nM. The “concentration that inhibits cell adhesion by αvβ1 integrin” value in test [1] (preliminary studies, highly selective manner) was under 100 pM. Moreover, in test [2], the “TGFβ activation by cultured liver myofibroblasts” value is “inhibits TGFβ activation”. As for `Cc1cnc(NCCCC(=O)Nc2ccc(C[C@H](NC(=O)[C@@H]3CCCN3S(=O)(=O)c3ccccc3)C(=O)O)cc2)c(C)c1` [Compound 210, (S)-3-(4-(4-((3,5-dimethylpyridin-2-yl)amino)butanamido)phenyl)-2-((S)-1-(phenylsulfonyl)pyrrolidine-2-carboxamido)propanoic acid], the IC50 in test [1] was in the range of 10 to 1000 nM. For `N=C(N)NCC(=O)Nc1ccc(C[C@H](NC(=O)[C@@H]2CCCN2S(=O)(=O)c2ccccc2)C(=O)O)cc1` [Compound 4, (S)-3-(4-(2-guanidinoacetamido)phenyl)-2-((S)-1-(phenylsulfonyl)pyrrolidine-2-carboxamido)propanoic acid], the concentration for half-maximal inhibition (IC50) in test [1] lay in the range of 10 to 1000 nM.

Take `N=C(N)NCCOCC(=O)Nc1ccc(C[C@H](NC(=O)[C@@H]2CCCN2S(=O)(=O)c2ccccc2)C(=O)O)cc1` [Compound 204, (S)-3-(4-(2-(2-guanidinoethoxy)acetamido)phenyl)-2-((S)-1-(phenylsulfonyl)pyrrolidine-2-carboxamido)propanoic acid]: the IC50 in test [1] lay within 10 to 1000 nM. The same measure, in the same setting: in the case of `N=C(N)Nc1cccc(CC(=O)Nc2ccc(C[C@H](NC(=O)[C@@H]3CCCN3S(=O)(=O)c3ccccc3)C(=O)O)cc2)c1` [Compound 205, (S)-3-(4-(2-(3-guanidinophenyl)acetamido)phenyl)-2-((S)-1-(phenylsulfonyl)pyrrolidine-2-carboxamido)propanoic acid] it was 10 to 1000 nM; in that of `N=C(N)NCCCC(=O)Nc1ccc(C[C@H](NC(=O)[C@@H]2CCCCN2S(=O)(=O)c2ccccc2)C(=O)O)cc1` [Compound 212], 10 to 1000 nM; in that of `N=C(N)Nc1ccc(C(=O)Nc2ccc(C[C@H](NC(=O)[C@@H]3CCCN3S(=O)(=O)c3ccccc3)C(=O)O)cc2)cc1` [Compound 200, (S)-3-(4-(4-guanidinobenzamido)phenyl)-2-((S)-1-(phenylsulfonyl)pyrrolidine-2-carboxamido)propanoic acid], 10 to 1000 nM.

With `CNCCCCCC(=O)N[C@H](CCCNC(=N)N)C(=O)Nc1ccc(C[C@H](NC(=O)C2CCCN2S(=O)(=O)c2ccccc2)C(=O)O)cc1` (stereo partly drawn) [Compound 198], the IC50 in test [1] was in the range of 10 to 1000 nM.

In test [1], `O=C(CCCCNC1=NCCN1)Nc1ccc(C[C@H](NC(=O)[C@@H]2CCCN2S(=O)(=O)c2ccccc2)C(=O)O)cc1` [Compound 11, (S)-3-(4-(5-((4,5-dihydro-1H-imidazol-2-yl)amino)pentanamido)phenyl)-2-((S)-1-(phenylsulfonyl)pyrrolidine-2-carboxamido)propanoic acid] yielded an IC50 of 10 to 1000 nM.

As a reminder, the IC50 is the concentration that gives 50% inhibition. Read a high IC50 as weaker potency.
